{
  "source": "patent US8143282B2",
  "about": "“Heterocyclic compounds” (S*BIO Pte Ltd., priority 2005, dated 2012)",
  "key": {"PC3": {"test_system": "PC3", "test": "Cell-based proliferation assay for GI50 (CyQUANT), PC3", "settings": "Homo sapiens, PC-3; PC3, 96 h treatment; read-out: Cellular or Growth Inhibition Activity, GI50, PC3", "protocol": "(§1) Human colon cancer cell lines (Colo205, HCT116), Ovarian cancer cell line (A2780), Hepatoma cell line (HEP3B), Prostate cancer cell line (PC3) were obtained from ATCC or ECACC. Colo205 cells were cultivated in RPMI 1640 containing 2 mM L-Glutamine, 5% FBS, 1.0 mM Na Pyruvate, 1 U/ml of penicillin and 1 μg of streptomycin. HCT116 cells were cultivated in McCoy's containing RPMI 1640 containing 2 mM L-Glutamine, 5% FBS, 1 U/ml of penicillin and 1 μg of streptomycin. A2780 cells were cultivated in RPMI 1640 containing 2 mM L-Glutamine, 5% FBS, 1 U/ml of penicillin and 1 μg of streptomycin. HEP3B cells were cultivated in EMEM containing 2 mM L-glutamine, 5% FBS, 1% non essential amino acid, 1 mM Na Pyruvate, 1 U/ml of penicillin and 1 μg of streptomycin. PC3 cells were cultivated in F12K, 2 mM L-glutamine, 5% FBS, 1 U/ml of penicillin and 1 μg of streptomycin. PC3, Colo205, and HCT116 cells were seeded in 96-wells plate at 1000, 5000 and 6000 cells per well respectively. A2780 and HEP3B cells were seeded in 96-wells plate at 4000 cells per well respectively. The plates were incubated at 37° C., 5% CO2, for 24 h. Cells were treated with compounds at various concentrations for 96 h. Cell growth was then monitored using CyQUANT® cell proliferation assay (Invitrogen Pte Ltd). Dose response curves were plotted to determine GI50 values for the compounds using XL-fit (ID Business Solution, Emeryville, Calif.). GI50 is defined as the concentration of compound required for 50% inhibition of cell growth."}, "HCT116": {"test_system": "HCT116", "test": "Cell-based proliferation assay for GI50 (CyQUANT), HCT116", "settings": "Homo sapiens, HCT-116; HCT116, 96 h treatment; read-out: Cellular or Growth Inhibition Activity, GI50, HCT116", "protocol": "as §1"}, "HDAC1 enzyme": {"biological_target": "T1, HDAC1 enzyme (Homo sapiens, UniProt Q13547)", "T1 construct": "Amplification of human HDAC1 coding region from this cDNA library was cloned separately into the baculovirus expression pDEST20 vector; made in house; host or cells: SF9 insect cells, pDEST20-HDAC1 baculovirus", "T1 sequence (Q13547 whole entry)": "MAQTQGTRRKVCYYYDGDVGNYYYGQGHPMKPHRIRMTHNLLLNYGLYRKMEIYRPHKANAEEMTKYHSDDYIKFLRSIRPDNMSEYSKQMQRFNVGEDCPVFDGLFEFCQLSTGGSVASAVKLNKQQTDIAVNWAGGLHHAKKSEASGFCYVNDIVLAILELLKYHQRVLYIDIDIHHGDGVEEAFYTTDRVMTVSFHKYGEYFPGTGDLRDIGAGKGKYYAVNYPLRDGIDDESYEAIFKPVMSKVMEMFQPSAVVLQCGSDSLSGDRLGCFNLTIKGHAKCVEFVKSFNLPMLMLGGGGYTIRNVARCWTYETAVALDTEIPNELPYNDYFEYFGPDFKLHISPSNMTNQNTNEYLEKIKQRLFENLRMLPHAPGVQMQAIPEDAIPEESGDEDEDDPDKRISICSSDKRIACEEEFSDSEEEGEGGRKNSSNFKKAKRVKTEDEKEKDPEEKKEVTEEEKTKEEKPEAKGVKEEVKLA", "test": "In vitro HDAC assay for determination of IC50 values (BIOMOL fluorescent-based HDAC activity assay)", "format": "biochemical", "in_short": "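Recombinant GST-HDAC1, cloned from SW620 cDNA and expressed in Sf9 cells, tested in a fluorogenic Fluor de Lys deacetylase assay. Developer was added for 10 min and fluorescence read at 360/460 nm. IC50 came from concentration series.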"}, "acetylated histone H3": {"test_system": "acetylated histone H3", "test": "Histone H3 acetylation assay (immuno-blotting) in Colo205 cells", "format": "cell-based, Human", "settings": "10 μM, 24 h, western-blot", "protocol": "A hallmark of histone deacetylase (HDAC) inhibition is the increase in the acetylation level of histones. Histone acetylation, including H3, H4 and H2A can be detected by immuno-blotting (western-blot). Colo205 cells, approximately 5×10^5 cells, were seeded in the previously described medium, cultivated for 24 h and subsequently treated with HDAC inhibitory agents and a positive control at a final concentration of 10 μM. After 24 h, cells were harvested and lysed according to the instruction from Sigma Mammalian Cell Lysis Kit. The protein concentration was quantified using BCA method (Sigma Pte Ltd). The protein lysate was separated using 4-12% bis-tris SDS-PAGE gel (Invitrogen Pte Ltd) and was transferred onto PVDF membrane (BioRad Pte Ltd). The membrane was probed using primary antibody specific for acetylated histone H3 (Upstate Pte Ltd). The detection antibody, goat anti rabbit antibody conjugated with HRP was used according to the manufacturing instruction (Pierce Pte Ltd). After removing the detection antibody from the membrane, an enhanced chemiluminescent substrate for detection of HRP (Pierce Pte Ltd) was added onto the membrane. After removing the substrate, the membrane was exposed to an X-ray film (Kodak) for 1 sec-20 mins. The X-ray film was developed using the X-ray film processor. The density of each band observed on the developed film could be qualitatively analyzed using UVP Bioimaging software (UVP, Inc, Upland, Calif.). The values were then normalized against the density of actin in the corresponding samples to obtain the expression of the protein."}},
  "data": [
    {"smiles": "CCCc1nc2cc(/C=C/C(=O)NO)ccc2n1CCNCCC(C)(C)C", "note": "[Compound 130, 3-{1-[2-(3,3-Dimethyl-butylamino)-ethyl]-2-propyl-1H-benzoimidazol-5-yl}-N-hydroxy-acrylamide]", "values": [
      {"measurement": "GI50", "setting": "PC3", "value": "< 500", "unit": "nM"},
      {"measurement": "GI50", "setting": "HCT116", "value": "< 500", "unit": "nM"},
      {"measurement": "IC50", "setting": "HDAC1 enzyme", "value": 36, "unit": "nM"},
      {"measurement": "Histone Acetylation activities (Histone-3)", "setting": "acetylated histone H3", "value": "Active"}
    ]}
  ]
}
